Data taken from paper PMC11768629, “Potential Interaction of Pinocembrin with Drug Transporters and Hepatic Drug-Metabolizing Enzymes” (Pharmaceuticals, 2025).

Tests used:
hOAT1 = biological target: T1, hOAT1 (Homo sapiens, UniProt Q4U2R8); test: hOAT1-mediated 6-CF uptake in hOAT1-MDCK cells (inhibitory potency and kinetics); type: cell-based
T1 construct: host or cells: MDCK
T1 sequence (Q4U2R8 1-563): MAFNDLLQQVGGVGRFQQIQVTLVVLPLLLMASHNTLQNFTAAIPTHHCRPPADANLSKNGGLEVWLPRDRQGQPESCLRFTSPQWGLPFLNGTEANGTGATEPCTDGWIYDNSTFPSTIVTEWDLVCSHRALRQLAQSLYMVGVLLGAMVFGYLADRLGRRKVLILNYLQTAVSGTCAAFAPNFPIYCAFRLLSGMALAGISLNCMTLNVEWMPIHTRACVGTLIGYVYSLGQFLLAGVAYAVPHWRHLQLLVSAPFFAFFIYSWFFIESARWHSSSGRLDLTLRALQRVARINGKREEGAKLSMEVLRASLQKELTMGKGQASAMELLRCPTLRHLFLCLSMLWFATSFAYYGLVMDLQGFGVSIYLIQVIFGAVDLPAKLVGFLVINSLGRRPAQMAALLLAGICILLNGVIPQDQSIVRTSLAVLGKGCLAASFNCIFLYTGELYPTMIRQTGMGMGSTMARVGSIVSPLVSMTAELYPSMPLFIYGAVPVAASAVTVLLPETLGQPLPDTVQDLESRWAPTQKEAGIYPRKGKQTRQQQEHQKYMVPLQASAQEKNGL
Experimental: To determine the inhibitory potency of pinocembrin on the hOAT1 and hOAT3 function, the IC50 of pinocembrin on the hOAT1- and hOAT3-mediated uptake of 6-carboxyfluorescein (6-CF), a fluorescent substrate of hOAT1 and hOAT3, was determined. […] Next, the inhibitory mechanism of pinocembrin was determined using a kinetic study.
The hOAT1-MDCK and hOAT3-MDCK cell monolayers were incubated at 37 °C with an uptake buffer containing 6-CF (10 µM), a fluorescent substrate of hOAT1 and hOAT3 [12], and pinocembrin (0–50 µM) for 10 min. Uptake was terminated by removing the uptake solution and washing four times with a cold buffer. The cell monolayers were lysed with 0.4 N NaOH for 30 min. The samples were transferred to 96-black well plates to measure the fluorescence intensity using a fluorescent plate reader (EnVision XCite 2105 Multimode Plate Reader, Packard BioScience, Wellesley, MA, USA) at excitation and emission wavelengths of 490 and 510, respectively. The IC50 of pinocembrin on hOAT1- and hOAT3-mediated 6-CF uptake was calculated in GraphPad Prism using sigmoidal concentration–response analysis using the equation Y = 100/(IC50/X)^HillSlope (X is the concentration, while Y is the normalized response). In addition, the estimated inhibitory constant (Ki) was calculated using the Cheng–Prusoff equation.
The hOAT1-MDCK and hOAT3-MDCK cell monolayers were incubated with 6-CF at increasing concentrations (0 to 100 µM) and in the absence or presence of 5 µM pinocembrin for 10 min. The kinetic parameters of 6-CF transport by hOAT1 and hOAT3 in the presence of pinocembrin were determined using nonlinear regression analysis to fit the Michaelis–Menten kinetic equation: V=Vmax[S]/Km+[S] where V is the rate of 6-CF transport, Vmax is the maximum rate of 6-CF transport, Km is the 6-CF concentration that results in half the maximum transport (Michaelis–Menten constant), and [S] is the concentration of 6-CF in the transport reaction.

OATP1A2 = tested on: OATP1A2; parameters: method as in PMID 28745105; details: transfected renal cells; cited from earlier work
CYP2A6 = tested on: CYP2A6; parameters: method as in PMID 34069400, doi:10.5562/cca3652, PMID 35721953; details: cited from earlier work
CYP2C9 = biological target: T2, CYP2C9 (Homo sapiens, UniProt P11712); test: Cell-free CYP450 inhibition assay, CYP2C9; type: biochemical; details: cell-free fluorescent probe assay, BACULOSOMES
T2 construct: purchased Life Technologies
T2 sequence (P11712 whole entry): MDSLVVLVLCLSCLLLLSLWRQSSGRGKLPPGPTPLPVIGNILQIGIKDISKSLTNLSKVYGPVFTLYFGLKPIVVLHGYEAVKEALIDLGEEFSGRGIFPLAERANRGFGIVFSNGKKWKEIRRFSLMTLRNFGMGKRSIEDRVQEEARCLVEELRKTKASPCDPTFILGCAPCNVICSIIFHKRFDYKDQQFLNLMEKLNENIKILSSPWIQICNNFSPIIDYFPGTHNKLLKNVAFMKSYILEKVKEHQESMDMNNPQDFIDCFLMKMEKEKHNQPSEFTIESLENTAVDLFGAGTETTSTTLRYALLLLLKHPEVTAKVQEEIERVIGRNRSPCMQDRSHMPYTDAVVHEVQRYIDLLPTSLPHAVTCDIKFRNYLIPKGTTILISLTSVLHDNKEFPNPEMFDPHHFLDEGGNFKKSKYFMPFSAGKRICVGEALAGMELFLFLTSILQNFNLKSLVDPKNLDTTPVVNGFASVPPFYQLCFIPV
Experimental: To determine whether pinocembrin influences the catalytic activity of CYP450 enzymes, fluorescent probe reaction assays were performed using varying concentrations of pinocembrin. […] In addition, molecular docking was conducted to better understand the binding mode and interactions between pinocembrin and human CYP2C19.
The CYP450 inhibitory activity of pinocembrin was determined using a P450 screening kit (Life Technologies; Carlsbad, CA, USA). Varied concentrations of pinocembrin were prepared in methanol. […] The fluorescence intensities were monitored every minute for 60 min at room temperature. The percentage of inhibition was calculated according to the following equation: % Inhibition=(1−X−B/A−B)×100% where X is the fluorescence intensity observed in the presence of pinocembrin.

Structure (SMILES): O=C1C[C@@H](c2ccccc2)Oc2cc(O)cc(O)c21 [pinocembrin]
- Vmax of hOAT1-mediated 6-CF uptake, With Pinocembrin (hOAT1; 5 μM pinocembrin, 6-CF up to 100 μM, hOAT1-MDCK cells): 6.03 ± 1.02 nmol/min/cm^2
- IC50 (hOAT1; hOAT1-MDCK cells, 6-CF 10 µM, mean ± S.D., three experiments): 1470 ± 870 nM
- Ki (hOAT1; hOAT1-MDCK cells, estimated with the Cheng–Prusoff equation): 810 ± 120 nM
- inhibitory mechanism on hOAT1 transport function (hOAT1; kinetic study, 5 μM pinocembrin: Km increased, Vmax unchanged): competitively
- effect on OATP1A2 function (OATP1A2): weakly inhibits
- effect on the activity of CYP2A6 (CYP2A6): does not affect
- IC50 (CYP2C9): 345000 nM
